# Data reported in PubChem BioAssay AID2060505 (Molecular Pharmacology Branch, DTP, NCI, 2025).
# Tested on: 633275-114-R-J1-PDC complex spheroids, viability
# Assay: Anticancer human tumor 633275-114-R-J1-PDC patient-derived endometrial adenocarcinoma cell line growth inhibition [GQUAD]
# Conditions: for IC50: curve of first compound; for viability, T/C: stronger effect = lower value
# How it was run: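 Tumor cells were grown as complex spheroids with HUVEC endothelial cells and mesenchymal stem cells as stroma. G-quadruplex stabilizers were combined with targeted agents over half-log dilutions from near the clinical Cmax, or from 10 microM.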
# [1] = second compound 0.0316 µM, first compound 0.0316 µM
# [2] = second compound 0.0316 µM, first compound 0.1 µM
# [3] = second compound 0.0316 µM, first compound 0.316 µM
# [4] = second compound 0.0316 µM, first compound 1 µM
# [5] = second compound 0.0316 µM, first compound 3.16 µM
# [6] = second compound 0.0316 µM, first compound 10 µM
# [7] = second compound 0.1 µM, first compound 0.0316 µM
# [8] = second compound 0.1 µM, first compound 0.1 µM
# [9] = second compound 0.1 µM, first compound 0.316 µM
# [10] = second compound 0.1 µM, first compound 1 µM
# [11] = second compound 0.1 µM, first compound 3.16 µM
# [12] = second compound 0.1 µM, first compound 10 µM
# [13] = second compound 0.316 µM, first compound 0.0316 µM
# [14] = second compound 0.316 µM, first compound 0.1 µM
# [15] = second compound 0.316 µM, first compound 0.316 µM
# [16] = second compound 0.316 µM, first compound 1 µM
# [17] = second compound 0.316 µM, first compound 3.16 µM
# [18] = second compound 0.316 µM, first compound 10 µM
# [19] = second compound 1 µM, first compound 0.0316 µM
# [20] = second compound 1 µM, first compound 0.1 µM
# [21] = second compound 1 µM, first compound 0.316 µM
# [22] = second compound 1 µM, first compound 1 µM
# [23] = second compound 1 µM, first compound 3.16 µM
# [24] = second compound 1 µM, first compound 10 µM
# [25] = second compound 3.16 µM, first compound 0.0316 µM
# [26] = second compound 3.16 µM, first compound 0.1 µM
# [27] = second compound 3.16 µM, first compound 0.316 µM
# [28] = second compound 3.16 µM, first compound 1 µM
# [29] = second compound 3.16 µM, first compound 3.16 µM
# [30] = second compound 3.16 µM, first compound 10 µM
# [31] = second compound 10 µM, first compound 0.0316 µM
# [32] = second compound 10 µM, first compound 0.1 µM
# [33] = second compound 10 µM, first compound 0.316 µM
# [34] = second compound 10 µM, first compound 1 µM
# [35] = second compound 10 µM, first compound 3.16 µM
# [36] = second compound 10 µM, first compound 10 µM
# 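Further: spheroids exposed to the agents for seven days.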
# 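Wherever viability, T/C is given: percent of DMSO vehicle control viability which is 100%.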
smiles,measurement,setting,value
CCCS(=O)(=O)Nc1ccc(F)c(C(=O)c2c[nH]c3ncc(-c4ccc(Cl)cc4)cc23)c1F + CN(C)c1ccc(Nc2c3ccc(NC(=O)CCN4CCCC4)cc3nc3cc(NC(=O)CCN4CCCC4)ccc23)cc1,IC50,second compound 0.0316 µM,8890 nM
same,IC50,second compound 0.1 µM,9280 nM
same,IC50,second compound 0.316 µM,9530 nM
same,IC50,second compound 1 µM,8320 nM
same,IC50,second compound 3.16 µM,5040 nM
same,IC50,second compound 10 µM,< 31.6 nM
same,"viability, T/C",[1],93.3%
same,"viability, T/C",[2],97.6%
same,"viability, T/C",[3],98.5%
same,"viability, T/C",[4],100%
same,"viability, T/C",[5],91%
same,"viability, T/C",[6],45.2%
same,"viability, T/C",[7],90.6%
same,"viability, T/C",[8],109%
same,"viability, T/C",[9],103%
same,"viability, T/C",[10],103%
same,"viability, T/C",[11],91.4%
same,"viability, T/C",[12],46.8%
same,"viability, T/C",[13],100%
same,"viability, T/C",[14],108%
same,"viability, T/C",[15],103%
same,"viability, T/C",[16],111%
same,"viability, T/C",[17],85.8%
same,"viability, T/C",[18],48.4%
same,"viability, T/C",[19],97.1%
same,"viability, T/C",[20],106%
same,"viability, T/C",[21],103%
same,"viability, T/C",[22],99.1%
same,"viability, T/C",[23],83.9%
same,"viability, T/C",[24],43.4%
same,"viability, T/C",[25],92.5%
same,"viability, T/C",[26],89%
same,"viability, T/C",[27],94.8%
same,"viability, T/C",[28],94.3%
same,"viability, T/C",[29],69%
same,"viability, T/C",[30],22.3%
same,"viability, T/C",[31],33.7%
same,"viability, T/C",[32],31.8%
same,"viability, T/C",[33],31.6%
same,"viability, T/C",[34],33.6%
same,"viability, T/C",[35],25.1%
same,"viability, T/C",[36],7.58%
Nc1ccn(C2OC(CO)C(O)C2(F)F)c(=O)n1 (stereo not drawn) + CN(C)c1ccc(Nc2c3ccc(NC(=O)CCN4CCCC4)cc3nc3cc(NC(=O)CCN4CCCC4)ccc23)cc1,IC50,second compound 0.0316 µM,< 31.6 nM
same,IC50,second compound 0.1 µM,< 31.6 nM
same,IC50,second compound 0.316 µM,< 31.6 nM
same,IC50,second compound 1 µM,< 31.6 nM
same,IC50,second compound 3.16 µM,< 31.6 nM
same,IC50,second compound 10 µM,< 31.6 nM
same,"viability, T/C",[1],27.4%
same,"viability, T/C",[2],20.1%
same,"viability, T/C",[3],23.8%
same,"viability, T/C",[4],23.6%
same,"viability, T/C",[5],20.7%
same,"viability, T/C",[6],20.5%
same,"viability, T/C",[7],27.1%
same,"viability, T/C",[8],20.7%
same,"viability, T/C",[9],24%
same,"viability, T/C",[10],22.4%
same,"viability, T/C",[11],21.5%
same,"viability, T/C",[12],19.3%
same,"viability, T/C",[13],29.6%
same,"viability, T/C",[14],21%
same,"viability, T/C",[15],25.6%
same,"viability, T/C",[16],22.9%
same,"viability, T/C",[17],19.7%
same,"viability, T/C",[18],17.7%
same,"viability, T/C",[19],27.7%
same,"viability, T/C",[20],20.1%
same,"viability, T/C",[21],22%
same,"viability, T/C",[22],21.1%
same,"viability, T/C",[23],22.4%
same,"viability, T/C",[24],19.6%
same,"viability, T/C",[25],24.6%
same,"viability, T/C",[26],20.6%
same,"viability, T/C",[27],19.3%
same,"viability, T/C",[28],18.6%
same,"viability, T/C",[29],20.6%
same,"viability, T/C",[30],18.6%
same,"viability, T/C",[31],12.9%
same,"viability, T/C",[32],11.6%
same,"viability, T/C",[33],11.7%
same,"viability, T/C",[34],11.7%
same,"viability, T/C",[35],11%
same,"viability, T/C",[36],9%
O=C(NO)c1cnc(N2CCN(S(=O)(=O)c3ccc4ccccc4c3)CC2)nc1 + CN(C)c1ccc(Nc2c3ccc(NC(=O)CCN4CCCC4)cc3nc3cc(NC(=O)CCN4CCCC4)ccc23)cc1,IC50,second compound 0.0316 µM,206 nM
same,IC50,second compound 0.1 µM,150 nM
same,IC50,second compound 0.316 µM,170 nM
same,IC50,second compound 1 µM,158 nM
same,IC50,second compound 3.16 µM,138 nM
same,IC50,second compound 10 µM,< 31.6 nM
same,"viability, T/C",[1],75.1%
same,"viability, T/C",[2],64.9%
same,"viability, T/C",[3],40.4%
same,"viability, T/C",[4],22.8%
same,"viability, T/C",[5],11.5%
same,"viability, T/C",[6],4.89%
same,"viability, T/C",[7],68.3%
same,"viability, T/C",[8],58.4%
same,"viability, T/C",[9],35.5%
same,"viability, T/C",[10],19.6%
same,"viability, T/C",[11],10.5%
same,"viability, T/C",[12],5.36%
same,"viability, T/C",[13],80.9%
same,"viability, T/C",[14],62%
same,"viability, T/C",[15],35.7%
same,"viability, T/C",[16],20.1%
same,"viability, T/C",[17],12.1%
same,"viability, T/C",[18],4.98%
same,"viability, T/C",[19],70.1%
same,"viability, T/C",[20],58.3%
same,"viability, T/C",[21],37.9%
same,"viability, T/C",[22],18.3%
same,"viability, T/C",[23],12.2%
same,"viability, T/C",[24],5.49%
same,"viability, T/C",[25],62.6%
same,"viability, T/C",[26],55%
same,"viability, T/C",[27],37.5%
same,"viability, T/C",[28],15.6%
same,"viability, T/C",[29],9.85%
same,"viability, T/C",[30],2.65%
same,"viability, T/C",[31],30.4%
same,"viability, T/C",[32],26.4%
same,"viability, T/C",[33],16.3%
same,"viability, T/C",[34],6.49%
same,"viability, T/C",[35],1.21%
same,"viability, T/C",[36],0.19%
O=c1[nH]cc(F)c(=O)[nH]1 + CN(C)c1ccc(Nc2c3ccc(NC(=O)CCN4CCCC4)cc3nc3cc(NC(=O)CCN4CCCC4)ccc23)cc1,IC50,second compound 0.0316 µM,> 10000 nM
same,IC50,second compound 0.1 µM,> 10000 nM
same,IC50,second compound 0.316 µM,> 10000 nM
same,IC50,second compound 1 µM,> 10000 nM
same,IC50,second compound 3.16 µM,> 10000 nM
same,IC50,second compound 10 µM,< 31.6 nM
same,"viability, T/C",[1],112%
same,"viability, T/C",[2],96%
same,"viability, T/C",[3],96.9%
same,"viability, T/C",[4],88.1%
same,"viability, T/C",[5],88.5%
same,"viability, T/C",[6],66%
same,"viability, T/C",[7],97.6%
same,"viability, T/C",[8],98.8%
same,"viability, T/C",[9],91.4%
same,"viability, T/C",[10],96.6%
same,"viability, T/C",[11],88.4%
same,"viability, T/C",[12],76.5%
same,"viability, T/C",[13],86.9%
same,"viability, T/C",[14],90.1%
same,"viability, T/C",[15],97.3%
same,"viability, T/C",[16],100%
same,"viability, T/C",[17],86.2%
same,"viability, T/C",[18],66.2%
same,"viability, T/C",[19],79.8%
same,"viability, T/C",[20],91.8%
same,"viability, T/C",[21],98.9%
same,"viability, T/C",[22],99%
same,"viability, T/C",[23],84.9%
same,"viability, T/C",[24],64.3%
same,"viability, T/C",[25],83.2%
same,"viability, T/C",[26],85.9%
same,"viability, T/C",[27],85.2%
same,"viability, T/C",[28],74%
same,"viability, T/C",[29],77.9%
same,"viability, T/C",[30],56.8%
same,"viability, T/C",[31],36%
same,"viability, T/C",[32],38.3%
same,"viability, T/C",[33],30.2%
same,"viability, T/C",[34],33.1%
same,"viability, T/C",[35],32.2%
same,"viability, T/C",[36],26.4%
